{"source": "patent US20250161396A1", "about": "“COMPOSITION AND METHOD FOR IMPROVING LIPID METABOLISM FUNCTION OF SUBJECT” (NANJING NUTRABUILDING BIO-TECH CO., LTD., priority 2022, published 2025)", "assay_type_in_all_cases": "in vivo", "key": {"high fat diet (HFD) mice [1]": {"tested_on": "high fat diet (HFD) mice", "assay": "Serum total cholesterol (TC) level by commercial kit", "details": "after 16 weeks of gavage", "protocol": "(§1) Mice were divided into five groups: one group was normal diet mice as ND control group; one group of high fat diet (HFD) mice were gavaged with no-active-ingredients water as HFD control group, one group of HFD mice were treated with BAIBA (65 mg/kg/day) alone by gavage as HFD+BAIBA group, one group of HFD mice were treated with GP (5.2 mg/kg/day) alone by gavage as HFD+GP group, and one group of HFD mice were treated with BAIBA (65 mg/kg/day) and GP (5.2 mg/kg/day) combination by gavage as HFD+BAIBA+GP group, all for 16 weeks.\n(§2) After the mice were killed, the serum was extracted by centrifugation, and the levels of triglyceride (TG) and total cholesterol (TC) in mice were measured by using commercial kits according to the instructions and recorded."}, "high fat diet (HFD) mice [2]": {"tested_on": "high fat diet (HFD) mice", "assay": "Oral glucose tolerance test (OGTT)", "details": "8th week", "protocol": "as §1\n(§3) At the 8th week after the initial experiment, oral glucose tolerance test (OGTT) and insulin tolerance test (ITT) were performed on mice. OGTT is as follows: Blood from tail tip of mice was taken to detect blood glucose, and glucose (1.5 g/kg) was given by gavage after overnight fasting, and blood glucose was monitored with a blood glucose meter before administration and 15, 30, 60, 90 and 120 minutes after administration. ITT is as follows: Insulin (0.75 U/kg) was given by intraperitoneal injection on an empty stomach, and blood glucose was monitored with a blood glucose meter before administration and 15, 30, 60, 90 and 120 minutes after administration."}, "high fat diet (HFD) mice [3]": {"tested_on": "high fat diet (HFD) mice", "assay": "Insulin tolerance test (ITT)", "details": "8th week", "protocol": "as §1, §3\nAs shown in Table 2 and FIG. 3B, after 15 minutes, the blood glucose level of mice in HFD control group decreased greatly, and the blood glucose level before and after the end of insulin half-life was higher than that in other groups. […] It can be seen that the combination of BAIBA and GP can reduce the insulin resistance of mice, that is, improve the insulin sensitivity."}, "high fat diet (HFD) mice [4]": {"tested_on": "high fat diet (HFD) mice", "assay": "Body weight of high fat diet mice after 16 weeks of treatment", "protocol": "as §1\nAt the beginning of treatment (baseline), the body weights of the five groups of mice were the same."}, "high fat diet (HFD) mice [5]": {"tested_on": "high fat diet (HFD) mice", "assay": "Serum triglyceride (TG) level by commercial kit", "details": "after 16 weeks of gavage", "protocol": "as §1, §2"}, "high fat diet (HFD) mice [6]": {"tested_on": "high fat diet (HFD) mice", "assay": "Body fat mass of high fat diet mice after 16 weeks of treatment", "protocol": "as §1\nAdipose tissue was collected, fixed with 10% formalin, embedded in paraffin, and dehydrated by graded alcohol. Tissue sections with a thickness of 5 μm were prepared, stained with hematoxylin-eosin (H&E) and observed under an optical microscope with a magnification of 200 times. The body fat mass of each group of mice was measured and recorded."}, "high fat diet (HFD) mice [7]": {"tested_on": "high fat diet (HFD) mice", "assay": "Serum leptin level by ELISA kit", "details": "after 16 weeks of gavage", "protocol": "as §1\nThe serum of mice was centrifuged, and the level of leptin in serum was determined by ELISA kit. According to the concentration value and light absorption value of leptin, the logarithmic value was taken as a standard curve, and the concentration value of leptin was converted according to the standard curve."}, "[8]": {"details": "gavage, BAIBA 65 mg/kg/day and/or GP 5.2 mg/kg/day, after 16 weeks"}, "[9]": {"details": "versus HFD control, after 16 weeks of gavage"}}, "data": [{"smiles": "CC(CN)C(=O)O", "note": "(stereo not drawn) [BAIBA, β-aminoisobutyric acid]", "values": [{"measurement": "total cholesterol (TC) level", "setting": "high fat diet (HFD) mice [1]", "value": 220.65, "unit": "mg/dL"}, {"measurement": "blood glucose level in OGTT, 15 min", "setting": "high fat diet (HFD) mice [2]; 15 min after glucose 1.5 g/kg by gavage", "value": 281.91, "unit": "mg/dL"}, {"measurement": "blood glucose level in OGTT, 30 min", "setting": "high fat diet (HFD) mice [2]; 30 min after glucose 1.5 g/kg by gavage", "value": 352.74, "unit": "mg/dL"}, {"measurement": "blood glucose level in OGTT, 60 min", "setting": "high fat diet (HFD) mice [2]; 60 min after glucose 1.5 g/kg by gavage", "value": 411.98, "unit": "mg/dL"}, {"measurement": "blood glucose level in OGTT, 90 min", "setting": "high fat diet (HFD) mice [2]; 90 min after glucose 1.5 g/kg by gavage", "value": 253.21, "unit": "mg/dL"}, {"measurement": "blood glucose level in OGTT, 120 min", "setting": "high fat diet (HFD) mice [2]; 120 min after glucose 1.5 g/kg by gavage", "value": 192.99, "unit": "mg/dL"}, {"measurement": "blood glucose level in OGTT compared with other groups, in words", "setting": "high fat diet (HFD) mice [2]; across time points", "value": "lower than that in HFD control group at each time point"}, {"measurement": "blood glucose level in OGTT, pre-dose", "setting": "high fat diet (HFD) mice [2]; overnight fasting, before glucose 1.5 g/kg by gavage", "value": 199.85, "unit": "mg/dL"}, {"measurement": "blood glucose level in ITT, 15 min", "setting": "high fat diet (HFD) mice [3]; 15 min after insulin 0.75 U/kg intraperitoneal", "value": 105.23, "unit": "mg/dL"}, {"measurement": "blood glucose level in ITT, 30 min", "setting": "high fat diet (HFD) mice [3]; 30 min after insulin 0.75 U/kg intraperitoneal", "value": 101.45, "unit": "mg/dL"}, {"measurement": "blood glucose level in ITT, 60 min", "setting": "high fat diet (HFD) mice [3]; 60 min after insulin 0.75 U/kg intraperitoneal", "value": 90.45, "unit": "mg/dL"}, {"measurement": "blood glucose level in ITT, 90 min", "setting": "high fat diet (HFD) mice [3]; 90 min after insulin 0.75 U/kg intraperitoneal", "value": 95.24, "unit": "mg/dL"}, {"measurement": "blood glucose level in ITT, 120 min", "setting": "high fat diet (HFD) mice [3]; 120 min after insulin 0.75 U/kg intraperitoneal", "value": 92.56, "unit": "mg/dL"}, {"measurement": "blood glucose level in ITT compared with other groups, in words", "setting": "high fat diet (HFD) mice [3]; across time points", "value": "higher than that in HFD control group at each time point"}, {"measurement": "blood glucose level in ITT, pre-dose", "setting": "high fat diet (HFD) mice [3]; empty stomach, before insulin 0.75 U/kg intraperitoneal", "value": 140.4, "unit": "mg/dL"}, {"measurement": "body weight", "setting": "high fat diet (HFD) mice [4]; [8]", "value": 47.8, "unit": "g"}, {"measurement": "body weight reduced by", "setting": "high fat diet (HFD) mice [4]; [9]", "value": 2.84, "unit": "%"}, {"measurement": "triglyceride (TG) level", "setting": "high fat diet (HFD) mice [5]", "value": 98.45, "unit": "mg/dL"}, {"measurement": "body fat mass", "setting": "high fat diet (HFD) mice [6]; [8]", "value": 5.38, "unit": "g"}, {"measurement": "body fat mass reduced by", "setting": "high fat diet (HFD) mice [6]; [9]", "value": 13.78, "unit": "%"}, {"measurement": "leptin level", "setting": "high fat diet (HFD) mice [7]", "value": 278.12, "unit": "pg/mL"}]}]}
